Reference: US5561110A, “Method for the treatment of the complications and pathology of diabetes” (Peptide Technology Limited, priority 1994, dated 1996)
Entries after “also recorded” stand apart in the source; their conditions may differ.

Key:
[1] = test system: Salmonella typhimurium TA 100; experiment: Ames test, plate incorporation, his- to his+ reversion
Experimental: Preparation of glycated compounds was performed according to Kim et al. (1991). In brief, D-glucose (1M) and each of the following: L-carnosine, L-lysine, L-alanine (all 1M) were dissolved in distilled water, the pH adjusted to 7 and the mixtures heated at 100° C. for 80 min. The solutions (50 μl and 250 μl ) were evaluated against strain TA 100 of Salmonells typhimurium using the plate incorporation method (Maron & Ames, 1983) with or without metabolic activation by a standard rat liver microsomal (S-9) preparation.
Salmonella tyrphimurium TA 100 indicator strain his^- to his^+ reversion system. Data represent the mean number of revertants per plate and their standard deviation for the test solutions and controls with and without metabolic stimulation by rat liver microsomal (S-9) preparation.

diabetic models = details: 30 weeks of feeding; cited from earlier work
ovalbumin = experiment: Glycation of ovalbumin by DHA with anti-glycator, gel filtration on Superose 6; type: biochemical; details: for effectiveness as anti-glycator, in words: ovalbumin + DHA, 60° C., 7 hours
Experimental: Gelfiltration Chromatography of Glycated Proteins HPLC Specifications:
COLUMN Superose 6, Pharmacia
SAMPLE: 100μ of Protein Sample (Approximately 100 μg)
Calibration was performed using Pharmacia high molecular weight (HMW) and low molecular weight (LMW) calibration kit.
To compare the effect of both carnosine and aminoguanidine on glycation bovine serum albumin (BSA) and ovalbumin was incubated with a constant amount of DHA and varying concentrations of either anti-glycator at 60° C. At the start of the reaction and after seven hours aliquots were taken and the progress of the reaction analysed by gel filtration on a Superose 6 column. Crosslinking or fragmentation of protein became clearly visible as a change in retention time compared to the untreated protein used as control. Some compounds eluted after theoretical retention time for the smallest compound. They tend to interfere with the column resin even at high ionic strength and presence of a detergent (Tween 20). They are not necessary small compounds but rather highly charged and reactive. […] In all aminoguanidine samples uncharacterised reaction products are formed predominantly at high concentrations (described as low molecular weight form "LMW" because the retention time is longer then observed for all other compounds). […] LMW were also observed when ovalbumin was replaced by bovine serum albumin in the incubation mixture (not shown). The LMW forms were never present in the camosine samples. A good measure for the effectiveness of an
Legend: ovalbumin was incubated with DHA for 7 hours in the presence of
various concentrations of either carnosine or aminoguanidine. Reaction
products were separated on a gelfiltration column (Superose 6) and peaks
grouped according to their retention times: HMW, high molecular weight
(15-30 min); albumin monomer (35 min); and late eluting compounds LMW, lo
molecular weight (>40 min). Carnosine and aminoguanidine concentration
[control] 0 mM, [A] 600 mM, [B] 300 mn, [C] 100 mM, [D] 50 mM.

bovine serum albumin = experiment: Dihydroxyacetone-induced modification (non-enzymic glycosylation, gel formation) of bovine serum albumin; type: biochemical; details: BSA 50 mg/ml, 250 mM dihydroxyacetone, 250 mM L-carnosine, 23° C., 4 weeks
Experimental: Physiological concentrations of bovine serum albumin (50 mg/ml in 50 mM Na-phosphate buffer pH 7.0) were incubated with or without 250 mM dihydroxyacetone in the presence and absence of 250 mM L-carnosine at 23° C. for 4 weeks. The experiment was performed under sterile conditions and the ionic strength was the same in all vials.

[2] = Body weight and organ weights of cholesterol-fed rabbits; type: in vivo, rabbit
Experimental: (§1) Male New Zealand white cross rabbits fed a high cholesterol (2%) diet were randomised to control or carnosine treatment 2% and plasma was assayed for cholesterol and triglycerides and carnosine. All animals received 100 g of food pellets/day and free access to water.
(§2) At the end of the 8 week treatment period, the rabbits were anaesthetised with pentobarbitone (325 mg/kg) and the total aorta removed. The arch, thoracic and abdominal regions were isolated by cutting the aorta circumferentially 1.0 cm proximal to the first pair of intercostal arteries and 0.3 cm above the coeliac artery. The adventitia was carefully dissected away, and the artery longitudinally cut to expose the intimal surface. The aorta was fixed in 10% buffered formalin for 48 hours. The lipid plaques in these vessels were then stained using Sudan IV and mounted with an aqueous mounting medium (Kaiser's Glycerol Jelly). The lesioned areas were directly traced from the mounted sections using an image analyser (Eye Com 850 image processor). Computer-aided planimetry was used to macroscopically determine the percentage of the affected area. Representative segments of atherosclerotic plaque were removed for confirmation by light microscopy. Results are expressed as mean ±SEM.

[3] = test system: streptozotocin induced diabetic rat; experiment: Formation of cataracts in streptozotocin induced diabetic rats; type: in vivo; details: after 8 week on carnosine diet (56 days), 2% in drinking water
Experimental: (§3) Male Sprague-Dawley rats weighing 200-250 g and 6 weeks of age were randomised to the following three treatment groups: control, diabetic, and carnosine-treated diabetic rats. Diabetes was induced with streptozotozen STZ(60 mg/kg body weight in citrate buffer, pH 4.5, i.v.), and all animals with plasma glucose levels >20 mM after 1 week were included in the study. Diabetic rats were randomised to receive either no therapy or 2% carnosine in drinking water.
Cataract is an opacification of the ocular lens sufficient to impair vision. Diabetes has been associated with cataract for many years and many laboratory experiments support the view that diabetes is the cause of one form of cataract. Diabetes in animals can be induced by streptozotozin and opacity of the lens starts to develop by 20 days after injection but dense opacities appear only after about 100 days depending on age at injection.
In cataract adducts of sugars to proteins including lens proteins have been identified and quantified. In most tissues there is little accumulation of late Maillard products even in diabetes but proteins in the lens nucleus have time not only to accumulate early glycation products but also for them to change into yellow Maillard products. […] Since this was measured at 56 days, the half way mark of the experiment, the trend indicates a reduction in cataract formation by carnosine feeding.

mammals = details: cited from earlier work
[4] = test system: streptozotocin induced diabetic rat; experiment: Albuminuria, glycated haemoglobin and blood glucose in diabetic rats; type: in vivo; details: week 8
Experimental: as §3

[5] = test system: Male New Zealand white cross rabbits fed a high cholesterol (2%) diet; experiment: Atherosclerotic plaque formation in aorta of cholesterol-fed rabbits; type: in vivo, rabbit; details: 8 weeks
Experimental: as §1, §2
Coronary heart disease is one of the most common causes of deaths in diabetics and non-diabetics alike. […]

SMILES: CC(=O)Nc1ccc2c(c1)Cc1ccccc1-2 [2AAF, reference compound]
- Revertants per Plate with TA 100, With S-9 ([1]; positive control, dose not given): 500

SMILES: N=C(N)NN [Aminoguanidine, aminoguanidine, reference compound]
- amount of glycated haemoglobin (diabetic models): does not reduce
- Percent Area of Chromatogram, HMW (ovalbumin; after 7 hours, [A] 600 mM): 0%
- Percent Area of Chromatogram, LMW (ovalbumin; after 7 hours, [A] 600 mM): 69%
- Percent Area of Chromatogram, Monomer (ovalbumin; after 7 hours, [A] 600 mM): 31%
- Percent Area of Chromatogram, HMW (ovalbumin; after 7 hours, [B] 300 mn): 8%
- Percent Area of Chromatogram, LMW (ovalbumin; after 7 hours, [B] 300 mn): 72%
- Percent Area of Chromatogram, Monomer (ovalbumin; after 7 hours, [B] 300 mn): 20%
- Percent Area of Chromatogram, HMW (ovalbumin; after 7 hours, [C] 100 mM): 0%
- Percent Area of Chromatogram, LMW (ovalbumin; after 7 hours, [C] 100 mM): 49%
- Percent Area of Chromatogram, Monomer (ovalbumin; after 7 hours, [C] 100 mM): 41%
- Percent Area of Chromatogram, HMW (ovalbumin; after 7 hours, [D] 50 mM): 38%
- Percent Area of Chromatogram, LMW (ovalbumin; after 7 hours, [D] 50 mM): 22%
- Percent Area of Chromatogram, Monomer (ovalbumin; after 7 hours, [D] 50 mM): 40%
- Percent Area of Chromatogram, HMW (ovalbumin; t0 hours, [A] to [D] 600-50 mM): 0%
- Percent Area of Chromatogram, LMW (ovalbumin; t0 hours, [A] to [D] 600-50 mM): 0%
- Percent Area of Chromatogram, Monomer (ovalbumin; t0 hours, [A] to [D] 600-50 mM): 100%

SMILES: NCCC(=O)N[C@@H](Cc1cnc[nH]1)C(=O)O [carnosine, β-alanyl-L-histidine]
- Resultant effects (appearance of albumin incubation) (bovine serum albumin): dark brown, fluid; also recorded: remained fluid
- Revertants per Plate with TA 100, With S-9 ([1]; Dose 50 μl): 179 ± 15
- Revertants per Plate with TA 100, Without S-9 ([1]; Dose 50 μl): 154 ± 14
- Revertants per Plate with TA 100, With S-9 ([1]; Dose 250 μl): 149 ± 13
- Revertants per Plate with TA 100, Without S-9 ([1]; Dose 250 μl): 158 ± 11
- mutagenicity ([1]; TA 100, with or without S-9): not mutagenic
- body weight versus control, in words ([2]; 8 week treatment period): no difference
- weight of various organs versus control, in words ([2]; 8 weeks): No difference
- Body Weight ([2]; Week 0): 3.33 ± 0.09 kg
- Body Weight ([2]; Week 8): 2.68 ± 0.12 kg
- Weight of organs, Heart ([2]; after 8 weeks treatment): 6.12 ± 0.27 g
- Weight of organs, Kidney ([2]; after 8 weeks treatment): 17.53 ± 0.69 g
- Weight of organs, Liver ([2]; after 8 weeks treatment): 124.40 ± 6.36 g
- lens clarity compared to diabetic control group [3]: higher clarity (less opacity)
- Percent Area of Chromatogram, HMW (ovalbumin; after 7 hours, [A] 600 mM): 9%
- Percent Area of Chromatogram, LMW (ovalbumin; after 7 hours, [A] 600 mM): 0%
- Percent Area of Chromatogram, Monomer (ovalbumin; after 7 hours, [A] 600 mM): 91%
- Percent Area of Chromatogram, HMW (ovalbumin; after 7 hours, [B] 300 mn): 6%
- Percent Area of Chromatogram, LMW (ovalbumin; after 7 hours, [B] 300 mn): 0%
- Percent Area of Chromatogram, Monomer (ovalbumin; after 7 hours, [B] 300 mn): 94%
- Percent Area of Chromatogram, HMW (ovalbumin; after 7 hours, [C] 100 mM): 3%
- Percent Area of Chromatogram, LMW (ovalbumin; after 7 hours, [C] 100 mM): 0%
- Percent Area of Chromatogram, Monomer (ovalbumin; after 7 hours, [C] 100 mM): 97%
- Percent Area of Chromatogram, HMW (ovalbumin; after 7 hours, [D] 50 mM): 25%
- Percent Area of Chromatogram, LMW (ovalbumin; after 7 hours, [D] 50 mM): 0%
- Percent Area of Chromatogram, Monomer (ovalbumin; after 7 hours, [D] 50 mM): 75%
- effectiveness as anti-glycator, in words (ovalbumin): more effective at all concentrations compared to aminoguanidine
- effectiveness as anti-glycator, in words (ovalbumin; listed as Carnosine): reduced formation of high molecular weight compounds and was slightly more effective at low concentration compared to aminoguanidine
- Percent Area of Chromatogram, HMW (ovalbumin; t0 hours, [A] to [D] 600-50 mM): 0%
- Percent Area of Chromatogram, LMW (ovalbumin; t0 hours, [A] to [D] 600-50 mM): 0%
- Percent Area of Chromatogram, Monomer (ovalbumin; t0 hours, [A] to [D] 600-50 mM): 100%
- toxicity, in words (mammals; in vivo): virtually non-toxic
- level that can be administered (mammals; mammals): 5-10 g/kg body weight
- Blood Glucose (mean + SEM) [4]: 22.63 ± 3.00 mM
- Percent Glycated Haemoglobin (HbAlc) [4]: 4.49 ± 0.14%
- atherosclerotic plaque formation, in words [5]: can reduce but not prevent plaque formation
